Reference: PubChem BioAssay AID2060611 (Molecular Pharmacology Branch, DTP, NCI, 2025)
Several values for one entry are separate records, joined by “and”; a condition that tells them apart may be missing. Equal values may be shown once.

Test system: 628569-122-R-J1-PDC complex spheroid viability
Test: Anticancer human tumor 628569-122-R-J1-PDC patient-derived head and neck squamous carcinoma cell line growth inhibition [CLK]
Settings: for viability, T/C: stronger effect = lower value; active means viability on the fitted dose curve at most 10% of control; inactive means the rest
From the text: A high-throughput screen of multi-cell type tumor spheroids was designed to identify active combinations of […] and targeted small molecules. Complex spheroids include a stromal component modeled by human endothelial cells (HUVEC) and fibroblasts modeled by human mesenchymal stem cells (MSCs). The concentration ranges selected for each drug and investigational agent were based upon clinically achievable concentrations if the clinical Cmax of the agent was known.
Compounds. The drugs and investigational agents: cirtuvivint (SM08502; NSC835563), CC-671 (NSC850746), vemurafenib (NSC761431), tapotoclax (NSC804041), sotorasib (NSC818433), adagrasib (NSC831453), MRTX-1133 (NSC836407), BAY2416964 (NSC825713), copanlisib (NSC816437), inavolisib (NSC800729), abemaciclib (NSC768073), osimertinib (NSC779217), entinostat (NSC756642), eltanexor (KPT-8602, NSC794443), venetoclax (NSC766270), ceralasertib (NSC777638), bortezomib (NSC756655), olaparib (NSC753686), talazoparib (NSC767125), alisertib (NSC759677), peposertib (NSC802822), gemcitabine (NSC613327), 5-fluorouracil (NSC19893), SN-38 (NSC673596), oxaliplatin (NSC266046), paclitaxel (NSC125973), and doxorubicin (NSC123127), were obtained from the National Cancer Institute (NCI) Developmental Therapeutics Program Chemical Repository. The FDA-approved anticancer drug set is available from the Developmental Therapeutics Program at https://dtp.cancer.gov/organization/dscb/obtaining/available plates.htm. […] The stock solutions were prepared in dimethyl sulfoxide (DMSO, Sigma-Aldrich, St. Louis, MO, cat. D2650), except for the platinum complexes which were prepared in saline (Quality Biological, Gaithersburg, MD, cat. 114-055-101), at 800-fold the tested concentration and stored at -70 degrees C prior to their use. All drugs and investigational agents were tested over a range starting from a high concentration at or near the clinical Cmax and decreasing in half-log increments. If the clinical Cmax for an agent had not been determined, the highest concentration tested was 10 microM.
Cell Culture. All cells were maintained in an incubator at 37 degrees C and 5% CO2 with 95% humidity. The PDC lines were cultured according to standard operating procedures established by the NCI PDMR. Briefly, all PDCs were thawed and cultured in Matrigel-coated flasks prepared with a working solution of 1X Ham's F-12 nutrient mix, without supplementation (Invitrogen, Waltham, MA, cat. 11765054), 100 U/mL penicillin-streptomycin (Invitrogen, cat. 15140122), and 2.5% Matrigel (Corning Inc., Corning, NY, cat. 354248) for the first three passages. The 947758-054-R-J2-PDC line was cultured in 6B/Colon 1A media, which includes advanced DMEM/F-12 (Thermo Fisher Scientific, cat. 12634028), 10 mM HEPES (Thermo Fisher Scientific, cat. 15630080), 1X GlutaMAX supplement (Thermo Fisher Scientific, cat. 35050061), 0.1 mg/mL primocin (InvivoGen, cat. ant-pm-2), 10% defined fetal bovine serum, heat inactivated (HyClone Laboratories Inc., cat. SH30070.03HI), 1.25 mM N-Acetyl-L-cysteine (Sigma-Aldrich, cat. A9165), 10 mM nicotinamide (Sigma-Aldrich, cat. N0636), 1X B-27 supplement (Thermo Fisher Scientific, cat. 17504044), 1X N-2 supplement (Thermo Fisher Scientific, cat. 17502048), and 10 microM Y-27632 dihydrochloride (Tocris Bioscience, cat. 1254). The 876862-298-R-J1-PDC was cultured in 6E media, which includes all 6B/Colon 1A media components plus 50% L-WRN conditioned media (ATCC, cat. CRL-3276), 50 ng/mL recombinant human EGF recombinant protein (hEGF; Thermo Fisher Scientific, cat. PHG0311), 10 ng/mL recombinant human fibroblast growth factor 10 (hGFG-10; PeproTech, cat. 100-26), 1 ng/mL recombinant human fibroblast growth factor 2 (hFGF-2; PeproTech, cat. 100-18B), and 1 µM prostaglandin E2 (PGE2; Tocris, cat. 2296). The 227483-062-R1-J1-PDC line was cultured in Panc media, containing all 6E components except hFGF-2, with the addition of 500 nM SB-431542 (Selleckchem, cat. S1067) and 10 nM gastrin (Tocris, cat. 3006). […]
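Further: spheroids exposed to agents for seven days before readout.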

Cn1ncnc1[C@H]1c2n[nH]c(=O)c3cc(F)cc(c23)N[C@@H]1c1ccc(F)cc1 + CNC(=O)c1ccc(Nc2nc(OC3CCCC3)c3c(-c4ccc5nc(C)oc5c4)c[nH]c3n2)c(OC)c1
inactive: viability, T/C (second compound 0.0316 µM, first compound 0.000316 µM) 86.7% | viability, T/C (second compound 0.0316 µM, first compound 0.001 µM) 90.1% | viability, T/C (second compound 0.0316 µM, first compound 0.00316 µM) 82.7% | viability, T/C (second compound 0.0316 µM, first compound 0.01 µM) 71.3% | viability, T/C (second compound 0.0316 µM, first compound 0.0316 µM) 78% | viability, T/C (second compound 0.0316 µM, first compound 0.1 µM) 64.9% | viability, T/C (second compound 0.1 µM, first compound 0.000316 µM) 61.4% | viability, T/C (second compound 0.1 µM, first compound 0.001 µM) 53.4% | viability, T/C (second compound 0.1 µM, first compound 0.00316 µM) 60.1% | viability, T/C (second compound 0.1 µM, first compound 0.01 µM) 53.7% | viability, T/C (second compound 0.1 µM, first compound 0.0316 µM) 51% | viability, T/C (second compound 0.1 µM, first compound 0.1 µM) 45.9% | viability, T/C (second compound 0.316 µM, first compound 0.000316 µM) 47.7% | viability, T/C (second compound 0.316 µM, first compound 0.001 µM) 48.4% | viability, T/C (second compound 0.316 µM, first compound 0.00316 µM) 51.9% | viability, T/C (second compound 0.316 µM, first compound 0.01 µM) 54.4% | viability, T/C (second compound 0.316 µM, first compound 0.0316 µM) 54.5% | viability, T/C (second compound 0.316 µM, first compound 0.1 µM) 39.6% | viability, T/C (second compound 1 µM, first compound 0.000316 µM) 43.9% | viability, T/C (second compound 1 µM, first compound 0.001 µM) 39.5% | viability, T/C (second compound 1 µM, first compound 0.00316 µM) 48.1% | viability, T/C (second compound 1 µM, first compound 0.01 µM) 39% | viability, T/C (second compound 1 µM, first compound 0.0316 µM) 40.1% | viability, T/C (second compound 1 µM, first compound 0.1 µM) 40.2% | viability, T/C (second compound 3.16 µM, first compound 0.000316 µM) 37.5% | viability, T/C (second compound 3.16 µM, first compound 0.001 µM) 45.5% | viability, T/C (second compound 3.16 µM, first compound 0.00316 µM) 48.5% | viability, T/C (second compound 3.16 µM, first compound 0.01 µM) 41.5% | viability, T/C (second compound 3.16 µM, first compound 0.0316 µM) 37.7% | viability, T/C (second compound 3.16 µM, first compound 0.1 µM) 34.3% | viability, T/C (second compound 10 µM, first compound 0.000316 µM) 47.4% | viability, T/C (second compound 10 µM, first compound 0.001 µM) 39.6% | viability, T/C (second compound 10 µM, first compound 0.00316 µM) 41.4% | viability, T/C (second compound 10 µM, first compound 0.01 µM) 36.7% | viability, T/C (second compound 10 µM, first compound 0.0316 µM) 38% | viability, T/C (second compound 10 µM, first compound 0.1 µM) 31.3%
< 0.316 nM: IC50 (curve of first compound, second compound 1 µM) | IC50 (curve of first compound, second compound 3.16 µM) | IC50 (curve of first compound, second compound 10 µM)
37.6 nM: IC50 (curve of first compound, second compound 0.1 µM)
1.53 nM: IC50 (curve of first compound, second compound 0.316 µM)
> 100 nM: IC50 (curve of first compound, second compound 0.0316 µM)

O=C(c1cc(Cc2n[nH]c(=O)c3ccccc23)ccc1F)N1CCN(C(=O)C2CC2)CC1
inactive: viability, T/C (compound 0.0316 µM) 86.8% and 91.2% | viability, T/C (compound 0.1 µM) 96.3% and 91.3% | viability, T/C (compound 0.316 µM) 90.6% and 110% | viability, T/C (compound 1 µM) 88.7% and 91.9% | viability, T/C (compound 3.16 µM) 74.6% and 93.7% | viability, T/C (compound 10 µM) 55.2% and 51.5%
> 10000 nM: IC50 (curve of compound)
